{"source": "patent US20200023018A1", "about": "“MODULATION OF GUT MICROBIOTA IN HUNTINGTON'S DISEASE AND RETT SYNDROME” (priority 2017, published 2020)", "key": {"[1]": {"tested_on": "Rett mice", "test": "GI pathology and metabolic changes in Rett mice", "type": "in vivo", "text": "In FIG. 14A, each point represents a mouse. N=6 each in FIG. 14C. […] N=6 for FIGS. 14E and 14F.\nIt was examined whether eliminating the intestinal microbiota of Rett mice alters GI pathology."}, "[2]": {"tested_on": "Rett mice", "test": "Staining of brain sections of Rett mice for astrocyte and microglial markers", "type": "in vivo", "source_text": "FIG. 15A depicts staining with markers of activated astrocyte GFAP (center column) and GS (right column); Overlay of GFAP and GS is shown in left column. […] The Iba-1 and CD11 generally colocalized throughout the hippocampal region, but Iba-1 was expressed at higher levels in the vehicle-treated group (see, e.g, arrow), and lower levels in the rifaximin-treated group.\nThe finding can be re-confirmed and quantified for statistical analysis. Elevation of GFAP and GS is linked to astrocytes activation and inflammation. Astrocytes are recognized as therapeutic targets for neuroinflammation, neurodegeneration, and neuropsychiatric disorders. Subsets of gut microbes produce molecules, which reach the CNS, lower astrocytes activation, and subsequently reduce the production of inflammatory cytokines (Rothhamrner et al., 2016). Gut bacteria also greatly influence the development of microglia, which are the CNS immune cells (Erny et al., 2015).\nFor example, animals can be gavaged with known amounts of rifaximin to ensure equal delivery."}, "[3]": {"tested_on": "Parkinson's disease patients", "details": "pilot study; cited from earlier work"}, "[4]": {"tested_on": "Rett mice", "test": "Semi-quantitative PCR of gut bacteria in Rett mice", "type": "in vivo", "source_text": "FIG. 7 is an image depicting the results of semi-quantitative PCR of Rett mice of some embodiments. […] Top panels are Eubacteria amplification used as a positive control.\nFIG. 19 is an image showing the results of semi-quantitative PCR in WT and Rett mice in accordance with some embodiments herein.\nLess is known about the role of Tenericutes in human health. In animals however, the presence of Tenericutes correlates with digestion of crude fiber (Niu et al., 2015)."}, "[5]": {"tested_on": "human microbiota", "details": "cited from earlier work"}, "[6]": {"tested_on": "Rett mice", "test": "Whole body plethysmography in Rett mice", "type": "in vivo", "details": "predicted", "source_text": "Whole body plethysmography are used to measure breathing irregularities in Rett mice. This phenotype is common in Rett patients (Lombardi et al., 2015). An accumulating body of literature supports the potential importance of vagus nerve in the regulation of breathing. We predict that intestinal dysbiosis in Rett impairs the vagus nerve activity and exacerbate the breathing abnormalities. […] The Buxco Fine Pointe Unrestrained Whole Body Plethysmograph system from Data Sciences International (DSI; St. Paul, Minn.) are used for these measurements."}, "[7]": {"tested_on": "Rett mice", "test": "Neurogenesis in Rett mice (doublecortin and ki67 staining)", "type": "in vivo", "source_text": "FIGS. 18A-C are a series of graphs and images depicting effects of microbiota on neurogenesis in Rett mice in accordance with some embodiments herein. FIG. 18A is a series of images depicting doublecortin staining of bilateral hippocampus in vehicle-treated (top panels) and rifaximin-treated Rett mice (bottm panels). FIG. 18B is a graph showing quantification of doublecortin positive cells in the dentate gyrus of bilateral hippocampi (2 layers) from 4 vehicle-treated and 6 rifaximin-treated animals, FIG. 18C is a series of images showing ki67 positive cells (arrows) in the SVZ (subventricular zone) of vehicle (top) and rifaximin-treated Rett mice. Boxed areas highlight regions with dramatic changes (considerably more ki67-positive cells are observed in the rifaximin-treated mose). NeuN staining for neurons (NeuN) is observed as bright foci throughout."}, "[8]": {"tested_on": "humans", "details": "cited from earlier work"}, "[9]": {"tested_on": "Hepatic Encephalopathy (HE) patients", "details": "clinical studies; cited from earlier work"}, "[10]": {"tested_on": "Drosophila model of HD", "test": "Aggregation of mHDx1 in a Drosophila model of HD (immunohistochemistry, Western blot)", "type": "in vivo", "source_text": "FIG. IB is an image of a Western blot (WB) of different batch pooled larvae examined for MHDx1 aggregation. FIG. 1C is a series of images depicting immunohistochemistry similar to FIG. 1A except that adult flies were used in FIG. 1C. FIG. 1D depicts a WB similar to FIG. 1B, except that adult flies were used in FIG. 1D. The Gal4 induction system with mHDx1 (120Q) downstream of UAS (upstream activation sequence) and the gal4 transactivator downstream of Drosophila neuronal-specific promoter Elav was used to induce the expression of mHDx1 in the nervous system of offspring. In FIG. 1C, the central brain region is shown.\nWithout being limited by theory, it is contemplated that intestinal microbiota contributes to the aggregation of mutant HTT in the enteric nervous stem (ENS). In a Drosophila model of HD (Barbaro et al., 2015), inducing the expression of a mutant HTT exon-1 fragment (mHDx1) in the nervous system promoted aggregation in the ENS of larvae in the vicinity of the gut (FIGS. 1A and 1B). The initial appearance of aggregates in the larval ENS is thus observed.\nAccordingly, it is observed herein that treatment with an antibiotic in accordance with some embodiments herein decreases aggregates of mutant Huntingtin protein."}, "[11]": {"tested_on": "Rett mice", "test": "Learning and memory of Rett mice (novel object recognition, Barnes Maze)", "type": "in vivo", "details": "rifaximin-treated Rett mice; expected", "procedure": "GF WT and Rett mice are also tested for these behaviors the results are compared with the rifaxitnin-treated cohorts.\nWe previously used this test in an environmental mouse model of autism (Hsiao et al., 2013). Rodents in general spend more time exploring a novel object than a familiar one. The ability to choose the novel object is indicative of learning and recognition memory. The novel object recognition task is conducted in an open field arena with two different kinds of objects. Both objects are generally consistent in height and volume, but are different in shape and appearance. During habituation, the animals are allowed to explore an empty arena. […] The time spent exploring each object and the discrimination index percentage are recorded. This test is used, among other experiments, to assess the cognitive ability of vehicle- and rifaximin-treated Rett mice as well as GF cohorts and quantify and compare the results.\nIn this test mice learn the position of a hole to escape the brightly lit open surface of the maze. […] Rett mice as well as GF cohorts and quantify and compare the results. For data acquisition the amount of time required for the animal to locate the goal box using visuo-spatial cues surrounding the maze periphery are measured. The number of errors the mice make are recorded to find the escape hole. […]"}, "[12]": {"tested_on": "Rett mice", "test": "Behaviors of Rett mice (nest building, climbing, wire-mesh hanging, clasping)", "type": "in vivo", "procedure": "FIG. 58 is a graph depicting that rifaximin-treated mice make more attempts at climbing a wired-mesh cylinder within a 2 min time allowed. FIG. 5C is a graph depicting that testing muscle strength by wired mesh hanging assay. […] N=6. Scoring and procedures were as described in Southwell et al., 2009.\nN=6. Scoring and procedures were as described in Southwell et al., 2009.\nNest building is indicative of rodents' well-being, daily activity, positive motivational state, and healthy brain functions (Jirkof, 2014).\nNest building is indicative of rodents' wellbeing, daily activity, positive motivational state, and healthy brain functions (Jirkof, 2014). […] This is consistent with the improved mobility in Rett mice observed herein. The data herein can be confirmed with additional behavioral tests, including rotarod, beam crossing, and open field. These studies can confirm benefits of rifaximin therapy on the CNS pathology and/or aberrant behaviors in Rett syndrome.\nThis is based on observations that male mice start displaying symptoms when they are ˜10 weeks old.\nHind limb clasping is a marker of disease progression in Rett syndrome and other diseases with motor defects. In this assay animals were suspended by the tail ˜30 cm above the tabletop for 1 min and recorded with a video camera. No clasping is scored as 0, periodic clasping and extension is scored as 1, and full hind limb clasping was scored with occasional extension is scored as 2. Severe clasping is scored as 3."}, "[13]": {"details": "Rett mice treated after weaning for 6 weeks"}, "[14]": {"details": "brain sections from the cortical regions, some of the treated Rett mice, compared to vehicle"}}, "note": "Entries after “also recorded” stand apart in the source; their conditions may differ.", "data": [{"smiles": "CO[C@H]1/C=C/O[C@@]2(C)Oc3c(C)c(O)c4c(O)c(c5c(nc6cc(C)ccn65)c4c3C2=O)NC(=O)/C(C)=C\\C=C\\[C@H](C)[C@H](O)[C@@H](C)[C@@H](O)[C@@H](C)[C@H](OC(C)=O)[C@@H]1C", "note": "[rifaximin]", "values": [{"measurement": "GI and metabolic symptoms of Rett mice", "setting": "[1]; Rett mice", "result": "eliminated the GI and metabolic symptoms"}, {"measurement": "inflammatory appearance of the GI tract", "setting": "[1]; Rett mice", "result": "reduces the inflammatory appearance of the GI tract"}, {"measurement": "colon length", "setting": "[1]; [13]", "result": "selectively elongates the colon"}, {"measurement": "intestinal obesity", "setting": "[1]; [13]", "result": "prevents intestinal obesity"}, {"measurement": "accumulation of abdominal fat", "setting": "[1]; female Rett mice", "result": "prevented"}, {"measurement": "weight gain", "setting": "[1]; female Rett mice", "result": "prevented"}, {"measurement": "staining for glial fibrillary acidic protein (GFAP)", "setting": "[2]; [14]", "result": "reduced staining"}, {"measurement": "staining for glutamine synthetase (GS)", "setting": "[2]; [14]", "result": "reduced staining"}, {"measurement": "numbers of microglia (microglial biomarkers)", "setting": "[2]; brain sections of Rett mice, some of the treated animals", "result": "numbers were reduced"}, {"measurement": "Iba-1 expression", "setting": "[2]; hippocampal region of Rett mice, versus vehicle-treated group", "result": "lower levels"}, {"measurement": "motor functions", "setting": "[3]", "result": "improved motor functions"}, {"measurement": "abundance of Bifidobacteria in the GI tract", "setting": "[4]", "result": "did not increase"}, {"measurement": "abundance of the phylum Tenericutes", "setting": "[4]", "result": "increased abundance"}, {"measurement": "proliferation of probiotic species including Bifidobacteria", "setting": "[5]", "result": "promotes the proliferation"}, {"measurement": "breathing defects", "setting": "[6]", "result": "ameliorate some of the breathing defects"}, {"measurement": "hippocampal neurogenesis", "setting": "[7]; compared to vehicle, doublecortin staining", "result": "enhanced"}, {"measurement": "dendritic arborization", "setting": "[7]; compared to vehicle, hippocampus", "result": "enhanced"}, {"measurement": "proliferation of cells in the subventricular zone (SVZ)", "setting": "[7]; ki67", "result": "Enhanced proliferation"}, {"measurement": "safety and tolerability", "setting": "[8]", "result": "safe and well tolerated"}, {"measurement": "bacterial load", "setting": "[9]", "result": "decreases bacterial load"}, {"measurement": "leaky gut", "setting": "[9]", "result": "corrects leaky gut"}, {"measurement": "severity of aberrant behaviors (anxiety, irritability, depression, motor symptoms, cognitive impairment)", "setting": "[9]", "result": "reduces the severity of several aberrant behaviors"}, {"measurement": "aggregation of mHDx1 in larvae", "setting": "[10]; Drosophila HD larvae generated in the presence of rifaximin", "result": "lowers the aggregation of mHDx1"}, {"measurement": "aggregation of mHDx1 in the CNS of adult flies", "setting": "[10]; adult HD flies", "result": "reduces the aggregation of mHDx1"}, {"measurement": "learning and memory", "setting": "[11]", "result": "learning and memory are improved"}, {"measurement": "activity in the cage environment", "setting": "[12]", "result": "more active"}, {"measurement": "hind limb clasping phenotype", "setting": "[12]", "result": "significantly reduced clasping phenotype"}, {"measurement": "nest building", "setting": "[12]", "result": "build better nests"}, {"measurement": "wire-mesh hanging assay (muscle strength)", "setting": "[12]", "result": "perform better; also recorded: enhanced muscle strength"}, {"measurement": "climbing a wire-meshed cylinder", "setting": "[12]; 2 min time allowed", "result": "perform better; also recorded: make more attempts to climb"}]}]}
